Values of other authors in publication PMC3160894, “Isolation and Characterization of CvIV4: A Pain Inducing α- Scorpion Toxin” (PLoS ONE, 2011).

tested on: Nav1.7; settings: ref [19], [20]
From the text: Given that buthid scorpions produce toxins that bind Na^+ channels in excitable membranes, it is plausible that their venom induces pain by initiating action potentials in nociceptors. Because some human pain disorders involve Na^+ channels expressed in nociceptors, [15], there has been an effort, albeit limited, to determine the components in buthid venom that induce pain with the goal of isolating peptides that discriminate among the DRG-expressed VGSCs. […] Because β-toxins make Na^+ channel ... || CvIV4 also slowed the fast inactivation and produced a persistent Na^+ current in rNav1.2, rNav1.3 and rNav1.4. […] Given that CvIV4 and CeII8 are similar in structure but differ in function and isoform selectivity, a comparison of these two toxins should improve our understanding of the structural characteristics that determine New World scorpion toxin selectivity and function.

Substance	Effect on fast inactivation of Nav1.7
AahII: α-toxin from Androctonus australis Hector; GenBank P01484	slow the fast inactivation of Nav1.7
LqhIII: α-toxin from Leiurus quinquestriatus hebraeus; GenBank P59355	slow the fast inactivation of Nav1.7
ODI: α-toxin from Odonthobuthus doriae; GenBank P84646	slow the fast inactivation of Nav1.7
